According to patent US20020137929A1, “1 - (3-heterocyclylphenyl) isothiourea, -isourea, -guanidine and -amidine herbicidal agents” (Intellectual Property Department, BASF Aktiengesellschaft, priority 1998, published 2002):

Columns and labels:
[1] = tested on: GALAP (Galium); assay: Preemergence herbicidal evaluation; format: in vivo, Galium aparine; conditions: 0.2500 kg/ha, rated 4-5 weeks after treatment
Source text: (§1) Results of herbicide evaluation are expressed on a rating scale (0-9). The scale is based upon a visual observation of plant stand, vigor, malformation, size, chlorosis and overall plant appearance as compared with a control.
(§2) The preemergence herbicidal activity of the test compounds of the present invention is exemplified by the following tests in which the seeds of a variety of monocotyledonous and dicotyledonous plants are separately mixed with potting soil and planted on top of approximately one inch of soil in separate pint cups. After planting, the cups are sprayed with the selected aqueous acetone solution containing test compound in sufficient quantity to provide the equivalent of about 0.0156 to 0.500 kg per hectare of test compound per cup. The treated cups are then placed on greenhouse benches, watered and cared for in accordance with conventional greenhouse procedures. From four to five weeks after treatment, the tests are terminated and each cup is examined and rated according to the rating system provided in Example 37.
(§3) The compounds evaluated are reported by compound number given in Example 37.

[2] = tested on: GLXMAW (Soybean, Williams); assay: Preemergence herbicidal evaluation; format: in vivo, Glycine max, (L.) Merr. cv Williams; conditions: 0.2500 kg/ha, rated 4-5 weeks after treatment
Source text: as §1, §2, §3

[3] = tested on: IPOHE (Morningglory, Ivyleaf); assay: Postemergence herbicidal evaluation; format: in vivo, Ipomoea hederacea; conditions: postemergence
Experimental: (§4) In the tests, seedling plants are grown in jiffy flats for about two weeks. The test compounds are dispersed in 50/50 acetone/water mixtures containing 0.5% TWEEN®20, a polyoxyethylene sorbitan monolaurate surfactant of Atlas Chemical Industries, in sufficient quantities to provide the equivalent of about 0.0156 kg to 0.500 kg per hectare of active compound when applied to the plants through a spray nozzle operating at 40 psi for a predetermined time. After spraying, the plants are placed on greenhouse benches and are cared for in accordance with conventional greenhouse procedures. From four to five weeks after treatment, the seedling plants are examined and rated according to the rating system set forth below. Where more than one test is involved for a given compound, the data are averaged.
(§5) Plant species employed in these evaluations are reported by header abbreviation, common name and scientific name.
as §1

[4] = tested on: CHEAL (Lambsquarters, Common); assay: Preemergence herbicidal evaluation; format: in vivo, Chenopodium album; conditions: 0.2500 kg/ha, rated 4-5 weeks after treatment
Source text: as §1, §2, §3

[5] = tested on: SETVI (Foxtail, Green); assay: Postemergence herbicidal evaluation; format: in vivo, Setaria viridis; conditions: postemergence
Experimental: as §4, §5, §1

[6] = tested on: TRZAWR (Wheat, Winter, cv Riband); assay: Postemergence herbicidal evaluation; format: in vivo, Triticum aestivum; conditions: postemergence
Experimental: as §4, §5, §1

[7] = tested on: CYPSE (Flatsedge); assay: Preemergence weed control under flooded paddy conditions; format: in vivo, Cyperus serotinus; conditions: rated 3-4 weeks after treatment
Experimental: as §1
(§6) Preemergence herbicidal activity under flooded paddy conditions is determined as follows: plant seeds or propagating organs are planted in the top 0.5 cm of silt loam soil in 32 oz. plastic containers with a diameter of 10.5 cm and no drainage holes. Water is added to these containers and maintained at 1.5 to 3 cm above the soil surface for the duration of the experiment. The test compounds are applied as aqueous/acetone mixtures 50/50 v/v pipetted directly into the flood water to give the equivalent of about 0.0313 to 0.500 kg/ha of active ingredient. The treated containers are placed on greenhouse benches and cared for in accordance with conventional greenhouse procedures. Three to four weeks after treatment, the test is terminated and each container is examined and herbicidal effect rated according to the rating system provided in Example 37. The compounds evaluated are reported by compound number given in Example 37.
(§7) Plant species employed in this example are reported by header abbreviation, common name and scientific name.

[8] = tested on: MOOVA (Monochoria); assay: as above; format: in vivo, Monochoria vaginalis; conditions: rated 3-4 weeks after treatment
Experimental: as §1, §6, §7

[9] = tested on: AMBEL (Ragweed, Common); assay: Preemergence herbicidal evaluation; format: in vivo, Ambrosia artemisifolia; conditions: 0.2500 kg/ha, rated 4-5 weeks after treatment
Source text: as §1, §2, §3

[10] = tested on: AMBEL (Ragweed, Common); assay: Postemergence herbicidal evaluation; format: in vivo, Ambrosia artemisifolia; conditions: postemergence
Experimental: as §4, §5, §1

[11] = tested on: CHEAL (Lambsquarters, Common); assay: Postemergence herbicidal evaluation; format: in vivo, Chenopodium album; conditions: postemergence
Experimental: as §4, §5, §1

[12] = tested on: ABUTH (Velvetleaf); assay: Postemergence herbicidal evaluation; format: in vivo, Abutilon theophrasti; conditions: postemergence
Experimental: as §4, §5, §1

[13] = tested on: ZEAMX (Corn, Field); assay: Preemergence herbicidal evaluation; format: in vivo, Zea mays; conditions: 0.2500 kg/ha, rated 4-5 weeks after treatment
Source text: as §1, §2, §3

[14] = tested on: ABUTH (Velvetleaf); assay: Preemergence herbicidal evaluation; format: in vivo, Abutilon theophrasti; conditions: 0.2500 kg/ha, rated 4-5 weeks after treatment
Source text: as §1, §2, §3

[15] = tested on: SETVI (Foxtail, Green); assay: Preemergence herbicidal evaluation; format: in vivo, Setaria viridis; conditions: 0.2500 kg/ha, rated 4-5 weeks after treatment
Source text: as §1, §2, §3

[16] = tested on: GLXMAW (Soybean, Williams); assay: Postemergence herbicidal evaluation; format: in vivo, Glycine max, (L.) Merr. cv Williams; conditions: postemergence
Experimental: as §4, §5, §1

[17] = tested on: ECHCG (Barnyardgrass); assay: Postemergence herbicidal evaluation; format: in vivo, Echinochloa crus-galli; conditions: postemergence
Experimental: as §4, §5, §1

[18] = tested on: ECHCG (Barnyardgrass); assay: Preemergence herbicidal evaluation; format: in vivo, Echinochloa crus-galli; conditions: 0.2500 kg/ha, rated 4-5 weeks after treatment
Source text: as §1, §2, §3

[19] = tested on: ORYSAT (Rice, Tebonnet); assay: Postemergence herbicidal evaluation; format: in vivo, Oryza sativa, (L.) Tebonnet; conditions: postemergence
Experimental: as §4, §5, §1

[20] = tested on: CYPIR (Rice Flatsedge); assay: Preemergence weed control under flooded paddy conditions; format: in vivo, Cyperus iria; conditions: rated 3-4 weeks after treatment
Experimental: as §1, §6, §7

[21] = tested on: IPOHE (Morningglory, Ivyleaf); assay: Preemergence herbicidal evaluation; format: in vivo, Ipomoea hederacea; conditions: 0.2500 kg/ha, rated 4-5 weeks after treatment
Source text: as §1, §2, §3

[22] = tested on: GALAP (Galium); assay: Postemergence herbicidal evaluation; format: in vivo, Galium aparine; conditions: postemergence
Experimental: as §4, §5, §1

[23] = tested on: ORYSAT (Rice, Tebonnet); assay: Preemergence herbicidal evaluation; format: in vivo, Oryza sativa, (L.) Tebonnet; conditions: 0.2500 kg/ha, rated 4-5 weeks after treatment
Source text: as §1, §2, §3

[24] = tested on: CASOB (Sicklepod); assay: Preemergence herbicidal evaluation; format: in vivo, Cassia obtusifolia; conditions: 0.2500 kg/ha, rated 4-5 weeks after treatment
Source text: as §1, §2, §3

[25] = tested on: ZEAMX (Corn, Field); assay: Postemergence herbicidal evaluation; format: in vivo, Zea mays; conditions: postemergence
Experimental: as §4, §5, §1

[26] = tested on: CASOB (Sicklepod); assay: Postemergence herbicidal evaluation; format: in vivo, Cassia obtusifolia; conditions: postemergence
Experimental: as §4, §5, §1

[27] = tested on: SAGPY (Arrowhead (Pygmaea)); assay: Preemergence weed control under flooded paddy conditions; format: in vivo, Sagittaria pygmaea; conditions: rated 3-4 weeks after treatment
Experimental: as §1, §6, §7

[28] = tested on: ECHORC (Watergrass (Calif.)); assay: as above; format: in vivo, Echinochloa oryzoides; conditions: rated 3-4 weeks after treatment
Experimental: as §1, §6, §7

[29] = tested on: TRZAWR (Wheat, Winter, cv Riband); assay: Preemergence herbicidal evaluation; format: in vivo, Triticum aestivum; conditions: 0.2500 kg/ha, rated 4-5 weeks after treatment
Source text: as §1, §2, §3

CCOC(=O)CN1C(=O)CSC1=Nc1cc(N2C(=O)CC(C(F)(F)F)CC2=O)c(F)cc1Cl [Compound 169, Ethyl 2-{{2-chloro-5-[2,6-dioxo-4-(trifluoromethyl)piperidino]-4-fluorophenyl}imino}-4-oxo-3-thiazolidineacetate]
Preemergence herbicidal rating GALAP [1]: 0.0
Preemergence herbicidal rating GLXMAW [2]: 3.0
herbicidal rating IPOHE ([3]; rate 0.0156 kg/ha): 9.0
herbicidal rating IPOHE ([3]; rate 0.0313 kg/ha): 9.0
herbicidal rating IPOHE ([3]; rate 0.0625 kg/ha): 9.0
Preemergence herbicidal rating CHEAL [4]: 4.0
herbicidal rating SETVI ([5]; rate 0.0156 kg/ha): 0.0
herbicidal rating SETVI ([5]; rate 0.0313 kg/ha): 5.0
herbicidal rating SETVI ([5]; rate 0.0625 kg/ha): 9.0
herbicidal rating TRZAWR ([6]; rate 0.0156 kg/ha): 4.5
herbicidal rating TRZAWR ([6]; rate 0.0313 kg/ha): 6.0
herbicidal rating TRZAWR ([6]; rate 0.0625 kg/ha): 7.0
herbicidal effect rating, CYPSE ([7]; 0.0313 kg/ha): 0.0
herbicidal effect rating, CYPSE ([7]; 0.1250 kg/ha): 0.0
herbicidal effect rating, MOOVA ([8]; 0.0313 kg/ha): 5.0
herbicidal effect rating, MOOVA ([8]; 0.0625 kg/ha): 6.0
herbicidal effect rating, MOOVA ([8]; 0.1250 kg/ha): 6.0
herbicidal effect rating, MOOVA ([8]; 0.2500 kg/ha): 7.0
Preemergence herbicidal rating AMBEL [9]: 3.0
herbicidal rating AMBEL ([10]; rate 0.0156 kg/ha): 9.0
herbicidal rating AMBEL ([10]; rate 0.0313 kg/ha): 9.0
herbicidal rating AMBEL ([10]; rate 0.0625 kg/ha): 9.0
herbicidal rating CHEAL ([11]; rate 0.0156 kg/ha): 0.0
herbicidal rating CHEAL ([11]; rate 0.0313 kg/ha): 3.0
herbicidal rating CHEAL ([11]; rate 0.0625 kg/ha): 4.0
herbicidal rating ABUTH ([12]; rate 0.0156 kg/ha): 9.0
herbicidal rating ABUTH ([12]; rate 0.0313 kg/ha): 9.0
herbicidal rating ABUTH ([12]; rate 0.0625 kg/ha): 9.0
Preemergence herbicidal rating ZEAMX [13]: 0.0
Preemergence herbicidal rating ABUTH [14]: 5.0
Preemergence herbicidal rating SETVI [15]: 0.0
herbicidal rating GLXMAW ([16]; rate 0.0156 kg/ha): 5.0
herbicidal rating GLXMAW ([16]; rate 0.0313 kg/ha): 6.5
herbicidal rating GLXMAW ([16]; rate 0.0625 kg/ha): 7.5
herbicidal rating ECHCG ([17]; rate 0.0156 kg/ha): 2.0
herbicidal rating ECHCG ([17]; rate 0.0313 kg/ha): 4.0
herbicidal rating ECHCG ([17]; rate 0.0625 kg/ha): 7.0
Preemergence herbicidal rating ECHCG [18]: 0.0
herbicidal rating ORYSAT ([19]; rate 0.0156 kg/ha): 0.5
herbicidal rating ORYSAT ([19]; rate 0.0313 kg/ha): 1.0
herbicidal rating ORYSAT ([19]; rate 0.0625 kg/ha): 2.0
herbicidal effect rating, CYPIR ([20]; 0.0313 kg/ha): 0.0
herbicidal effect rating, CYPIR ([20]; 0.0625 kg/ha): 0.0
herbicidal effect rating, CYPIR ([20]; 0.1250 kg/ha): 0.0
herbicidal effect rating, CYPIR ([20]; 0.2500 kg/ha): 2.0
Preemergence herbicidal rating IPOHE [21]: 3.0
herbicidal rating GALAP ([22]; rate 0.0156 kg/ha): 0.0
herbicidal rating GALAP ([22]; rate 0.0313 kg/ha): 0.0
herbicidal rating GALAP ([22]; rate 0.0625 kg/ha): 0.0
Preemergence herbicidal rating ORYSAT [23]: 0.0
Preemergence herbicidal rating CASOB [24]: 0.0
herbicidal rating ZEAMX ([25]; rate 0.0156 kg/ha): 6.0
herbicidal rating ZEAMX ([25]; rate 0.0313 kg/ha): 7.5
herbicidal rating ZEAMX ([25]; rate 0.0625 kg/ha): 8.5
herbicidal rating CASOB ([26]; rate 0.0156 kg/ha): 0.0
herbicidal rating CASOB ([26]; rate 0.0313 kg/ha): 1.0
herbicidal rating CASOB ([26]; rate 0.0625 kg/ha): 3.0
herbicidal effect rating, SAGPY ([27]; 0.0313 kg/ha): 0.0
herbicidal effect rating, SAGPY ([27]; 0.0625 kg/ha): 0.0
herbicidal effect rating, SAGPY ([27]; 0.1250 kg/ha): 0.0
herbicidal effect rating, SAGPY ([27]; 0.2500 kg/ha): 3.0
herbicidal effect rating, ECHORC ([28]; 0.0313 kg/ha): 0.0
herbicidal effect rating, ECHORC ([28]; 0.0625 kg/ha): 0.0
herbicidal effect rating, ECHORC ([28]; 0.1250 kg/ha): 0.0
herbicidal effect rating, ECHORC ([28]; 0.2500 kg/ha): 2.0
Preemergence herbicidal rating TRZAWR [29]: 0.0
